Consider eight compounds from PubChem BioAssay (NCI).

“And” between values parts separate entries of the source, which are not always exact repeats. Identical values can stand only once.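 Method: 48-hour compound exposure of cells in 96-well plates, five concentrations, linear interpolation of endpoints. Abbreviation: GI50, concentration required for 50% inhibition of growth. At the TGI there is no net growth.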

Among the test systems are KM12 colon; SK-MEL-28 melanoma; HOP-62 NSCLC; K-562 leukemia; SN12C renal; MDA-MB-435; NCI-H522 lung; 786-0 renal; HOP-92 NSCLC; OVCAR-4 ovarian.
Holding throughout (test): growth of human tumour cells (NCI), 48 h

For the compound `COc1cc2c(c(OC)c1OC)-c1c(cc3c(c1OC)OCO3)C1OC2C(C)C1C` (stereo not drawn) (tested in a mixture with another compound), the TGI in the test with KM12 colon, in the test with SK-MEL-28 melanoma, with HOP-62 NSCLC, in the test with K-562 leukemia, in the test on SN12C renal and with MDA-MB-435 was above 100 µM throughout. Besides, the TGI with NCI-H522 lung, in the test with 786-0 renal, with HOP-92 NSCLC and in the test on OVCAR-4 ovarian was above 100 µM in each case.

Regarding `Nc1nc(-c2cccc(Cl)c2)c(-c2ccc3ncccc3n2)s1`, the GI50 in the test on KM12 colon, with SK-MEL-28 melanoma, in the test with HOP-62 NSCLC, in the test with K-562 leukemia, in the test with SN12C renal and with MDA-MB-435 was above 25 µM in each case. Also, the GI50 in the test with NCI-H522 lung is above 25 µM; in the test on 786-0 renal, above 25 µM; in the test with HOP-92 NSCLC it was above 24 µM; with OVCAR-4 ovarian it was above 25 µM. Also, the TGI in the test with KM12 colon, in the test on SK-MEL-28 melanoma, in the test on HOP-62 NSCLC, in the test with K-562 leukemia, in the test on SN12C renal and in the test on MDA-MB-435 was above 25 µM throughout. Besides, the TGI in the test on NCI-H522 lung, in the test with 786-0 renal, in the test with HOP-92 NSCLC and with OVCAR-4 ovarian was above 25 µM throughout.

As for `CC(C)(C)c1cc(NC(=O)Cc2ccc(-c3cnc4cc(-c5cnn(CCN6CCOCC6)c5)ccc4n3)cc2)no1`, the TGI is 50 µM and > 100 µM and > 3 µM with KM12 colon; 50 µM and > 100 µM and > 3 µM in the test on SK-MEL-28 melanoma; 50 µM and > 100 µM and > 3 µM with HOP-62 NSCLC; 50 µM and > 100 µM and > 3 µM in the test on K-562 leukemia; 50 µM and > 100 µM and > 3 µM with SN12C renal; 50 µM and > 100 µM and > 3 µM with MDA-MB-435. The TGI in the test with NCI-H522 lung is 50 µM and > 100 µM and > 3 µM; in the test on 786-0 renal it was 50 µM and > 100 µM and > 3 µM; with HOP-92 NSCLC, 2.92 µM and > 3 µM; in the test with OVCAR-4 ovarian it was 50 µM and 14.4 µM and > 1.16 µM. Also, the GI50 in the test on SK-MEL-28 melanoma is 0.885 µM and 0.826 µM and 0.139 µM; with K-562 leukemia, 0.216 µM and 0.307 µM and 0.0848 µM; in the test with SN12C renal it was 0.243 µM and 0.348 µM and 0.0645 µM; in the test on MDA-MB-435 it was 0.356 µM and 0.452 µM and 0.0989 µM; in the test with NCI-H522 lung, 0.298 µM and 0.465 µM and 0.0962 µM; in the test with 786-0 renal it was 0.297 µM and 0.764 µM and 0.092 µM. Further, the GI50 was 0.194 µM and 0.0913 µM in the test on HOP-92 NSCLC; 0.158 µM and 0.363 µM and 0.0439 µM in the test with OVCAR-4 ovarian.

For `N#Cc1cccc(NC(=O)c2cc(-c3ccc(F)cc3F)ccc2O)c1`, the GI50 is 3 µM in the test on KM12 colon; 2.07 µM in the test with SK-MEL-28 melanoma; 2.97 µM with HOP-62 NSCLC; 1.98 µM with K-562 leukemia; 2.1 µM with SN12C renal; 2.38 µM in the test with MDA-MB-435. The GI50 in the test with NCI-H522 lung is 1.64 µM; with 786-0 renal, 2.69 µM; in the test on HOP-92 NSCLC, 0.294 µM; in the test with OVCAR-4 ovarian, 2.11 µM. The TGI with KM12 colon was 10.8 µM; in the test on SK-MEL-28 melanoma it was 14.8 µM; in the test with HOP-62 NSCLC it was 11 µM; in the test on K-562 leukemia, above 100 µM; with SN12C renal it was 8.32 µM; in the test with MDA-MB-435, 9.32 µM. In addition, the TGI with NCI-H522 lung is 12.1 µM; in the test with 786-0 renal, 19.4 µM; with HOP-92 NSCLC it was 2.43 µM; with OVCAR-4 ovarian, 23 µM.

Take `Nc1ncn(C2CC(O)C(CO)O2)c(=O)n1` (stereo not drawn): the TGI in the test on KM12 colon was above 281 µM; with SK-MEL-28 melanoma it was above 324 µM; with HOP-62 NSCLC, above 319 µM; with K-562 leukemia, above 332 µM; in the test on SN12C renal, above 375 µM; in the test on MDA-MB-435, above 98.3 µM. Further, the TGI was 218 µM in the test with NCI-H522 lung, above 256 µM in the test on 786-0 renal, above 375 µM in the test on HOP-92 NSCLC and above 375 µM in the test on OVCAR-4 ovarian.

On to `COc1ccc(-n2cc(-c3cc(OC)c(OC)c(OC)c3)[nH]c2=O)cc1Cl`, for which the GI50 in the test with KM12 colon is above 100 µM; with SK-MEL-28 melanoma it was above 100 µM; with HOP-62 NSCLC, 51.7 µM; in the test with K-562 leukemia, above 100 µM; in the test on SN12C renal, above 100 µM; in the test with MDA-MB-435, above 100 µM. Further, the GI50 is above 100 µM in the test with NCI-H522 lung, 27.7 µM in the test on 786-0 renal, 15 µM in the test on HOP-92 NSCLC and above 100 µM in the test with OVCAR-4 ovarian. Also, the TGI in the test with KM12 colon, in the test on SK-MEL-28 melanoma, in the test on HOP-62 NSCLC, in the test on K-562 leukemia, in the test on SN12C renal and with MDA-MB-435 was above 100 µM in each case. Further, the TGI with NCI-H522 lung, in the test with 786-0 renal, with HOP-92 NSCLC and in the test on OVCAR-4 ovarian was above 100 µM throughout.

Consider `Cc1ccc(C(=O)Nc2ccc(CN3CCN(C)CC3)c(C(F)(F)F)c2)cc1C#Cc1cnc(N)c2ccccc12`, for which the GI50 with KM12 colon was 0.377 µM; in the test with SK-MEL-28 melanoma it was 0.479 µM; with HOP-62 NSCLC, 0.849 µM; in the test on K-562 leukemia, 0.005 µM; in the test on SN12C renal it was 0.191 µM; with MDA-MB-435, 0.214 µM. Also, the GI50 is 0.465 µM with NCI-H522 lung, 0.435 µM in the test on 786-0 renal, 0.506 µM in the test on HOP-92 NSCLC and 0.219 µM in the test on OVCAR-4 ovarian. In addition, the TGI with KM12 colon amounted to 1.08 µM; in the test with SK-MEL-28 melanoma, 1.15 µM; in the test with HOP-62 NSCLC, 2.13 µM; in the test with K-562 leukemia, 0.61 µM; in the test on SN12C renal, 0.917 µM; with MDA-MB-435, 0.835 µM. In addition, the TGI in the test with NCI-H522 lung was determined as 1.36 µM; with 786-0 renal it was 1.08 µM; in the test with HOP-92 NSCLC, 2.08 µM; in the test on OVCAR-4 ovarian, 1.33 µM.

Turning to `CCC(=O)c1c(C(F)(F)F)n([O-])c2ccc(C)cc2[n+]1=O`, the GI50 in the test with KM12 colon was 4.99 µM; in the test with SK-MEL-28 melanoma, 28.2 µM; in the test with HOP-62 NSCLC it was 11.3 µM; in the test with K-562 leukemia, 3.4 µM; with SN12C renal, 7.39 µM; with MDA-MB-435, 9.53 µM. Further, the GI50 is 1.62 µM in the test on NCI-H522 lung, 22 µM in the test with 786-0 renal, 8.69 µM with HOP-92 NSCLC and 24 µM with OVCAR-4 ovarian. Further, the TGI was 14.9 µM in the test on KM12 colon; above 50 µM with SK-MEL-28 melanoma; above 50 µM in the test with HOP-62 NSCLC; above 50 µM in the test with K-562 leukemia; 19.8 µM in the test on SN12C renal; 40.8 µM with MDA-MB-435. Also, the TGI was 11.2 µM in the test with NCI-H522 lung, above 50 µM in the test on 786-0 renal, above 50 µM in the test on HOP-92 NSCLC and above 50 µM in the test with OVCAR-4 ovarian.
